These are literature values, as cited in US20170189443A1, “COMPOSITIONS AND METHODS FOR TREATMENT OF DISEASES AND CONDITIONS EMPLOYING ORAL ADMINISTRATION OF SODIUM PENTOSAN POLYSULFATE AND OTHER PENTOSAN POLYSULFATE SALTS” (URIGEN PHARMACEUTICALS, INC., priority 2014, published 2017).

Read-outs that look alike come from different tables or passages of the source.

For data set [1] the following is noted: oral administration.
The conditions of data set [2]: tritiated pentosan polysulfate, healthy human volunteers, Simon et al. 2005.
For data set [3], the system named is interstitial cystitis. As to conditions: intravesical.
For data set [4], the system named is interstitial cystitis. The note with it: intravesical instillations.

`O=S(=O)(O)CCS` [Mesnex, mesna]: the “frequency of adverse events (all AEs)” value is 85% (IV) and 89% (oral).
Consider sodium pentosan polysulfate, for which, in data set [1], the oral availability is recorded as 2-6%. In addition, in data set [2], the excreted through urine is listed as 6% and the “excreted unchanged in feces” value is recorded as “more than 94%”.
On to heparin, for which the “patients treated in whom the agent is effective” value in the data set on interstitial cystitis [3] is “approximately 50%”.
For `C[S+](C)[O-]` [DMSO, dimethylsulfoxide], the “IC patients treated with benefit” value with interstitial cystitis [4] was approximately 50%.
